Test results published in publication PMC4497601 (Angewandte Chemie (International Ed. in English), 2014).
“Also recorded” adds a separate entry of the source.

Key:
Hsp90 ATP binding site = Hsp90 ATP binding site (Homo sapiens, UniProt P07900); assay: LLS screening in competition mode; conditions: Δ=2.5 s; for binding to Hsp90 in LLS competition screening of mixtures: 500 μM spy ligand II, 2.5 μM Hsp90, 600 μM of each ligand
Hsp90 [1] = conditions: read-out: KD ITC; cited from earlier work
[2] = target: N-terminal ATPase domain of heat shock protein 90 (Hsp90) (Homo sapiens, UniProt P07900); assay: LLS NMR direct titration of ligand against Hsp90; type: binding
Hsp90 [3] = conditions: cited from earlier work

N[C@@H](Cc1ccc(O)cc1)C(=O)O [tyrosine]
binding to Hsp90 in LLS competition screening of mixtures (Hsp90 ATP binding site): nonbinding

N=C(N)c1ccc(C(F)(F)F)cc1 [4-trifluoromethylbenzamidine]
binding to Hsp90 in LLS competition screening of mixtures (Hsp90 ATP binding site): nonbinding

Nc1ncccn1 [Ligand III, 2-aminopyrimidine]
Kd (Hsp90 [1]): > 1000 µM

Nc1ncnc2c1ncn2[C@@H]1O[C@H](COP(=O)(O)OP(=O)(O)O)[C@@H](O)[C@H]1O [Ligand I, Adenosine diphosphate]
Kd [2]: 15 ± 10 µM | RLLS bound ([2]; bound ligand, fitted from direct titration with 10 μM Hsp90): 77 ± 6 s⁻¹ | RLLS free ([2]; free ligand): 731±7 ms^−1 | Kd (Hsp90 [1]): 10 µM

CC(C)c1cc(C(=O)N2Cc3ccc(CN4CCN(C)CC4)cc3C2)c(O)cc1O [AT13387]
LLS signal of spy ligand II on addition of competitor (Hsp90 ATP binding site; 500 μM ligand II, 10 μM Hsp90, 10 μM competitor): almost completely restored; also recorded: partly restored

Cc1cnc(N)c(Br)c1 [Ligand V, 3-bromo-5-methylpyridin-2-ylamine]
binding to Hsp90 in LLS competition screening of mixtures (Hsp90 ATP binding site): weakly binding | binding to Hsp90 identified by fragment screening (Hsp90 [3]): weak ADP-competitive binders

NCc1ccc(F)c(F)c1 [3,4-difluorobenzylamine]
binding to Hsp90 in LLS competition screening of mixtures (Hsp90 ATP binding site): nonbinding
